In patent publication US4977152A, “Novel tricyclic derivatives which are agonists of cholinergic receptors, and drugs in which they are present” (Societe Anonyme: Sanofi, priority 1986, dated 1990):
Numbering of substitutions follows the chain as printed. Read-outs that look alike come from different tables or passages of the source.

Assays:
[1] = target: T1, M1-type muscarinic cholinergic receptor (Rattus norvegicus, UniProt P08482); test: Test for affinity for the M1-type muscarinic cholinergic receptor: displacement of [3H]pirenzepine on rat hippocampus homogenate; assay type: binding; settings: for IC50: rat hippocampus homogenate, 1 nM [3H]PZ, 2 h at 4° C., pH 7.40; for r = (M2 /M1): ratio of IC50 M2 (3H-NMS, guinea-pig ileum) to IC50 M1 (3H-pirenzepine, rat hippocampus)
T1 sequence (P08482 1-460): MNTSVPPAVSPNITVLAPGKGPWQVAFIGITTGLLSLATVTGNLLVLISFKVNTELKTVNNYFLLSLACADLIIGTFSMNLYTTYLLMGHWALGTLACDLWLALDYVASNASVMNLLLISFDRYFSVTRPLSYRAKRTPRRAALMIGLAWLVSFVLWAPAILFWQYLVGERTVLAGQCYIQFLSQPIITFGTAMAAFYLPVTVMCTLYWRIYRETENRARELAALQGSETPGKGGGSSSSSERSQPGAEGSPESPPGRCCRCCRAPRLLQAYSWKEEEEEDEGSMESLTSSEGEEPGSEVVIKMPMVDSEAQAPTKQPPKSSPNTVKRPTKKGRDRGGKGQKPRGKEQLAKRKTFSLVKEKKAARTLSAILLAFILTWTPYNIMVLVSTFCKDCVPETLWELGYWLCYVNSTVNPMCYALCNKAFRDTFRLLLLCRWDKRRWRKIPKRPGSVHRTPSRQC
Text: (§1) The M1 -type receptors are concentrated in certain areas of the brain, such as the hippocampus, the cerebral cortex and the striatum, and also in the sympathetic ganglia. These binding sites can be selectively labeled with [^3 H]pirenzepine ([^3 H]PZ). The M2 -type receptors predominate in the heart and ileum and can be labeled with [^3 H]N-methylscopolamine ([^3 H]NMS). To determine the selectivity of our molecules towards the M1 and M2 sites, we studied their interaction in vitro with [^3 H]PZ and [^3 H]NMS bound with a high affinity to membranes of rat hippocampus and membranes of smooth muscle of guinea-pig ileum, respectively.
The interaction of the molecules with M1 -type muscarinic receptors was studied by in vitro measurement, on a homogenate of rat hippocampus, of the displacement of tritiated pirenzepine ([^3 H]PZ) from its specific binding sites. Aliquots (10 μl) of a 5% (w/v) homogenate of rat hippocampus in an Na2 HPO4 buffer (50 mM, pH 7.40) are incubated for 2 h at 4° C. in the presence of [^3 H]pZ ([…]; final concentration: 1 nM) and increasing concentrations of products to be studied. The final volume is 2 ml. The reaction is stopped by centrifugation for 10 min at 50,000 × g. After decantation and washing of the residues, the bound radioactivity is counted by liquid scintillation. The non-specific binding is determined in the presence of 10 μmol/l of atropine sulfate. The 50% inhibitory concentration (IC50) is determined graphically (Ref.: Watson J. D., Roeskoe W. R. and Yamamura H.1., Life Sci., 31, 2019-2029, 1982).
(§2) Table 4 indicates the affinities of the products of the invention for M1 and M2 receptors. The results are expressed as 50% inhibitory concentrations (IC50), i.e. the concentration (in μM) which causes a 50% displacement placement of the tritiated ligand bound to the membrane receptors. The IC50 for displacement of ^3 H-pirenzepine represents the affinity for the M1 receptor; the IC50 for displacement of 3H-NMS represents the affinity for the M2 receptor.

[2] = target: T2, M2-type muscarinic cholinergic receptor (Cavia porcellus, UniProt H0VRN8); test: Test for affinity for the M2-type muscarinic cholinergic receptor: displacement of [3H]N-methylscopolamine on smooth muscle of guinea-pig ileum; assay type: binding; settings: guinea-pig ileum smooth muscle homogenate, 0.3 nM [3H]NMS, 20 min at 30° C., pH 7.5
T2 construct: on a homogenate of smooth muscle of guinea-pig ileum; from tissue; host or cells: guinea-pig ileum smooth muscle homogenate
T2 sequence (H0VRN8 1-466): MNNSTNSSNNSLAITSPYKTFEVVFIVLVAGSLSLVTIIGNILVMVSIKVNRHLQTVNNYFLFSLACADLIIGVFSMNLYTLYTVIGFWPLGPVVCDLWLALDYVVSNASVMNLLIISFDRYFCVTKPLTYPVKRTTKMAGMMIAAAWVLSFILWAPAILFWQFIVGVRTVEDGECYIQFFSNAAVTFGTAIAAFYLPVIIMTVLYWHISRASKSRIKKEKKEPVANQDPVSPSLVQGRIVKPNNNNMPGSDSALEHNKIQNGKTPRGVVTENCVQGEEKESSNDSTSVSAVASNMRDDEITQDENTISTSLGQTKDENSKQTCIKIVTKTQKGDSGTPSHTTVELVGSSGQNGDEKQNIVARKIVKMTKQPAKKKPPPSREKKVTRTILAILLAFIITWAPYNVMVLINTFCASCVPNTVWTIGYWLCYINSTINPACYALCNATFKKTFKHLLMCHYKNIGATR
Text: as §1
The interaction with M2 -type muscarinic receptors was studied by in vitro measurement, on a homogenate of smooth muscle of guinea-pig ileum, of the displacement of tritiated N-methylscopolamine ([^3 H]NMS) from its specific binding sites. Aliquots (50 μl) of a 0.625% (w/v) homogenate of smooth muscle of guinea-pig ileum in MEPES buffer (20 mM) containing NaCl (100 mM) and MgCl2 (10 mM) (final pH: 7.5) are incubated for 20 min at 30° C. in the presence of [^3 H]NMS ([…]; final concentration: 0.3 nM) and increasing concentrations of products to be tested. The final volume is 1 ml. The reaction is stopped by centrifugation for 5 min at 15,000 × g. The non-specific binding is determined in the presence of 10 μmol/l of atropine sulfate (Ref.: Hammer R., Berrie C. P., Birdsall N. I. M., Burgen A. S. V. and Hulme E. C., Nature, 283, 90-92, 1980; Hulme E. C., Birdsall N.1.M., Burgen A. S. V. and Mettha P., Mol. pharmacol., 14, 737-750, 1978).
as §2

[3] = target: T3, M1 central muscarinic cholinergic receptors (Mus musculus, UniProt P12657); test: Antagonism of rotational behavior induced by intrastriatal injection of pirenzepine in mice; assay type: in vivo, mice (female, Swiss, CD 1); settings: ip, read-out: Pirenzepine antagonism ED50
T3 construct: The intrastriatal injection of PZ into mice induces rotational behavior; from tissue; host or cells: right striatum of living female mice (Swiss, CD 1)
T3 sequence (P12657 1-460): T1 sequence (P08482 1-460) with S309P
Protocol: Pirenzepine (PZ) is a specific antagonist of M1 central muscarinic cholinergic receptors. The intrastriatal injection of PZ into mice induces rotational behavior. The antagonism of this behavior by the products according to the invention was studied.
The products according to the invention are injected intraperitoneally (i.p.) after solubilization in distilled water or suspension in a 5% solution of gum arabic. The control animals receive an injection of the pure solvent under the same conditions.
The animals used are female mice (Swiss, CD 1, Charles River, France) with a body weight of between 25 and 30 grams.
Pirenzepine is dissolved in a phosphate buffer; the pH of the solution is 6.
The products to be studied or their solvents are injected intraperitoneally, in a volume of 0.4 ml per 20 g of body weight, 15 minutes before a direct injection of pirenzepine at a dose of […] into the right striatum of the mouse, according to the method described by p.
The number of contralateral rotations (rotations in the opposite direction to the side injected) was counted for three 2-minute periods after the injection of pirenzepine: minutes 2 to 4, 8 to 10 and 13 to 15. Each treatment includes 3 to 4 doses and 10 animals per dose. For each treatment, the total number of rotations and the percentage antagonism compared with the control group are calculated.

| SMILES | IC50 [1] [µM] | r = (M2 /M1) [1] | IC50 [2] [µM] | ED50 [3] [mg/kg] | ED50 ([3]; mice, i.p. 15 minutes before intrastriatal pirenzepine, 50% reduction in number of rotations) [mg/kg] |
| --- | --- | --- | --- | --- | --- |
| Cl.Cl.c1ccc2c(c1)CCCc1cc(NCCN3CCOCC3)nnc1-2 [SR 95639 A, 3-(2-Morpholinoethylamino)-6,7-dihydro-5H-benzocyclohepta[5,6-c]pyridazine dihydrochloride] | 0.4 | 137 | 55 | 5 |  |
| CCN(CC)CCCNc1cc2c(nn1)-c1ccccc1CCC2 [SR 95818 A] | 0.24 | 50 | 12 |  | 7 |
